# Reference: patent US6255502A, “Pharmaceutical composition containing acid addition salt of basic drug” (Farmarc Nederland B.V., priority 1996, dated 2001)
# Experiments:
# [1] = by forming a complex with a fatty acid; cited from earlier work
# [2] = Partition coefficient and apparent partition coefficient, n-octanol / phosphate buffer pH 7.4 at 25° C.; format: physicochemical; settings: n-octanol / phosphate buffer pH 7.4, 25° C.; for Partition Coefficient: P = Co/Cw; for Apparent Partition Coefficient: Papp=P/(1+10^pKa-pH)
# Procedure: Melting points (peak onset temperature) were determined by Differential Scanning Calorimetry using a Perkin Elmer DSC 7. The saturation solubilities were determined by shaking an excess of the compound in phosphate buffer pH 7.4 at 25° C. […] Pharmaceutical Press p70]:
# where P=Co /Cw and where Co is the concentration of the drug in n-octanol and Cw is the concentration of the drug in phosphate buffer pH 7.4 at 25° C. Drug concentrations were determined by HPLC.
# [3] = Thermal decomposition seen in differential scanning calorimetry; format: physicochemical; settings: DSC from 50 to 200° C.
# Procedure: Salbutamol base (1.2007 g; 5.02 mmol) was dissolved in ethanol (100 mL) with vigorous stirring. Glycodeoxycholic acid (2.4601 g; water content: 4.25% w/w; 5.25 mmol~5% molar excess) was added and dissolved with stirring. A clear, colourless solution was obtained. The ethanol was removed by vacuum rotary-evaporation to give a viscous, yellow residue. Ethyl acetate (200 mL) was added to the residue and the mixture heated in a water bath with constant agitation. As the yellow residue dissolved, a white precipitate formed. Agitation was continued until the yellow residue disappeared. The ethyl acetate solution was cooled in an ice bath. […] Analysis by differential scanning calorimetry from 50 to 200° C. gave no significant thermal event. Slow decomposition was evident after 110° C.
# [4] = Aqueous solubility (stated in the Examples); format: physicochemical; settings: aqueous solution
# [5] = providing an appropriate pH gradient existed; cited from earlier work
# [6] = dogs, sustained-release oral formulation study; cited from earlier work
# [7] = cited from earlier work
# [8] = Deliquescence of precipitate on standing; format: physicochemical
structure (smiles),measurement,setting,value
CC(C)NCC(O)COc1cccc2ccccc12 (stereo not drawn) [propranolol],Penetration across the stratum corneum,[1],a significant proportion of propranolol will penetrate across the stratum corneum
CNS(=O)(=O)Cc1ccc2[nH]cc(CCN(C)C)c2c1 [Sumatriptan base],Partition Coefficient,[2],"0,69"
same,Apparent Partition Coefficient,[2],"0,004039"
CC(C)(C)NCC(O)c1ccc(O)c(CO)c1 (stereo not drawn) [Salbutamol base],Partition Coefficient,[2],"0,42"
same,Apparent Partition Coefficient,[2],0.005222
"CC(C)(C)NCC(O)c1ccc(O)c(CO)c1 (stereo not drawn) [Salbutamol glycodeoxycholate, salbutamol glycodeoxycholate]",Partition Coefficient,[2],"0,61"
same,Apparent Partition Coefficient,[2],"0,007584"
same,Slow decomposition evident after,[3],> 110 °C
same,Aqueous solubility,[4],greater than 8.35 mg/mL
CCCCCCCCCCCC(=O)O [lauric acid],Transport of cations across an iso-Pr myristate membrane,[5],facilitated
CC(C)NCC(O)COc1cccc2ccccc12 (stereo not drawn) [propranolol laurate],bioavailability,[6],An increase in bioavailability was observed
CCCCCCCCCC(=O)[O-].[Na+] [sodium caprate],effect on rat nasal absorption of insulin,[7],promoting effect
CCCCCCCCCCCC(=O)[O-].[Na+] [sodium laurate],effect on rat nasal absorption of insulin,[7],promoting effect
"COc1ccc2c3c1O[C@H]1[C@@H](O)C=C[C@H]4[C@@H](C2)N(C)CC[C@@]341 [Codeine caprate, codeine caprate]",Deliquescence,[8],very deliquescent
CCCCCCCC(=O)[O-].[Na+] [sodium caprylate],effect on rat nasal absorption of insulin,[7],promoting effect
CC(C)(C)NCC(O)c1ccc(O)c(CO)c1 (stereo not drawn) [Salbutamol caprate],Partition Coefficient,[2],"0,54"
same,Apparent Partition Coefficient,[2],"0,006714"
same,solubility,[4]; water,4760 µg/mL
CCCCCCCC/C=C\CCCCCCCC(=O)O [oleic acid],Transport of cations across an iso-Pr myristate membrane,[5],facilitated
"CNS(=O)(=O)Cc1ccc2[nH]cc(CCN(C)C)c2c1 [Sumatriptan caprate, sumatriptan caprate]",Partition Coefficient,[2],"1,54"
same,Apparent Partition Coefficient,[2],0.009015
